Assay results as given in patent US20230092648A1, “COMBINATION CONTAINING A DUOCARMYCIN DERIVATIVE-COMPRISING ANTIBODY-DRUG CONJUGATE AND THIOSULFATE” (BYONDIS B.V., priority 2020, published 2023).

Conditions: formulations up to a concentration of 0.3 M STS; ocular route

O=S(O)(O)=S [STS, sodium thiosulfate]
adverse findings (local tolerance and toxicity): did not show adverse findings
